Assay results taken from patent US20250276078A1, “Camptothecin Derivative And Ligand-drug Conjugate Thereof” (Baili-Bio (Chengdu) Pharmaceutical Co., Ltd., priority 2020, published 2025).
Read-outs that look alike come from different tables or passages of the source.

Tests used:
[1] = Log P value test (partition coefficient in n-octane (oil) and water); format: physicochemical
Excerpt: The log P values are closely related to water solubility, membrane permeability, in vivo ADME process and affinity between the compound and the receptor, which play a key role in the process of the compound's penetration through the biofilm. The log P value was obtained by testing the partition coefficient of camptothecin drug in n-octane (oil) and water, the results are shown as follows: […]

[2] = test system: MDA-MB-468; test: Cell activity test of camptothecin chiral derivatives (MTS); format: cell-based
Protocol: (§1) Cell-based in vitro experiments are used to determine cell survival, cytotoxicity and programmed cell death induced by camptothecin drugs disclosed in the present invention.
The in vitro efficacy of camptothecin was determined by cell proliferation test. CellTiter 96® Aqueous One Solution Cell Proliferation Assay is commercially available (Promega Corp., Madison, WI). CellTiter96® Aqueous One Solution Cell Proliferation Assay (a) is a test reagent that can be used to measure the number of viable cells from cell proliferation and cytotoxicity tests by colorimetric assay. […] PES has enhanced chemical stability, which allows it to be mixed with MTS to form stable solutions. MTS (Owen's reagent) is reduced by cellular organisms into a variety of colored methylate products, which can be dissolved directly in the medium. This transformation is most likely accomplished with the help of NADPH or NADH produced by dehydrogenase in metabolically active cells. For detection, appropriate amount of CellTiter96® Aqueous One Solution Reagent is added directly into the medium of culture plate hole, incubated for 1-4 hours, and the absorbance value of 490 nm is read with enzyme label instrument.
(§2) The amount of methylate detected at 490 nm is proportional to the number of live cells in the culture. Due to the dissolubility of the methyls of MTS in tissue medium, CellTiter 96® Aqueous One Solution is performed with fewer steps than the MTT or INT methods.
The 96-well plates were uniformly inoculated with appropriate cell density and incubated at 37° C. in carbon dioxide incubator. […] Camptothecin drug was diluted in the medium (initial concentration was 1 uM, 7 times diluted, with 8 concentration points. The last two columns were control group (i.e., cell+medium, no drug treatment) and blank group (i.e., cell-free, only containing medium, for background subtraction). After fully mixing the drug, the drug was added into the corresponding cell hole and incubated at 37° C. in a carbon dioxide incubator for 3 days. After 3 days, 20 ul MTS (Promegm, G3581) were added to each well for 2 h, and a machine reader (from Molecular Device, model: SpectraMAX190) took readings at 490 nM. By detecting the activity of dehydrogenase in mitochondria, IC50 was calculated to evaluate the inhibitory effect of camptothecin on cell proliferation.

[3] = test system: SW620; test: as above; format: cell-based
Protocol: as §1
(§3) The in vitro efficacy of camptothecin was determined by cell proliferation test. CellTiter 96® Aqueous One Solution Cell Proliferation Assay is commercially available (Promega Corp., Madison, WI). CellTiter96® Aqueous One Solution Cell Proliferation Assay (a) is a test reagent that can be used to measure the number of viable cells from cell proliferation and cytotoxicity tests by colorimetric assay. The reagent contains a new tetrazolium compound [3-(4, 5-dimethylthiazol-2-yl)-5-(3-carboxymethoxyphenyl)-2-(4-sulfophenyl)-2h-Tetrazolium, inner salt; MTS] and an electron coupling agent (phenazine ethosulfate; PES). PES has enhanced chemical stability, which allows it to be mixed with MTS to form stable solutions. MTS (Owen's reagent) is reduced by cellular organisms into a variety of colored methylate products, which can be dissolved directly in the medium. This transformation is most likely accomplished with the help of NADPH or NADH produced by dehydrogenase in metabolically active cells. For detection, appropriate amount of CellTiter96® Aqueous One Solution Reagent is added directly into the medium of culture plate hole, incubated for 1-4 hours, and the absorbance value of 490 nm is read with enzyme label instrument.
as §2
(§4) The 96-well plates were uniformly inoculated with appropriate cell density and incubated at 37° C. in carbon dioxide incubator. 24 hours later, the cells were confirmed to be normal under the microscope, and camptothecin drugs were administered. Camptothecin drug was diluted in the medium (initial concentration was 1 uM, 7 times diluted, with 8 concentration points. The last two columns were control group (i.e., cell+medium, no drug treatment) and blank group (i.e., cell-free, only containing medium, for background subtraction). After fully mixing the drug, the drug was added into the corresponding cell hole and incubated at 37° C. in a carbon dioxide incubator for 3 days. After 3 days, 20 ul MTS (Promegm, G3581) were added to each well for 2 h, and a machine reader (from Molecular Device, model: SpectraMAX190) took readings at 490 nM. By detecting the activity of dehydrogenase in mitochondria, IC50 was calculated to evaluate the inhibitory effect of camptothecin on cell proliferation. The corresponding test results of camptothecin chiral derivative IC50 (nM) were as follows: PGP-99 T2

[4] = test system: BxPc-3; test: as above; format: cell-based
Protocol: as §1, §3, §2, §4

[5] = test system: A431; test: as above; format: cell-based
Protocol: as §1, §3, §2, §4

[6] = test system: SK-BR-3; test: as above; format: cell-based
Protocol: as §1, §3, §2, §4

[7] = Homo sapiens, MDA-MB-468, 72 h, read-out: IC50
[8] = Homo sapiens, SW-620, 72 h, SW620, 3 days, read-out: IC50
[9] = Homo sapiens, 72 h, BxPc-3, 3 days, read-out: IC50
[10] = Homo sapiens, A-431, 72 h, A431, 3 days, read-out: IC50
[11] = Homo sapiens, 72 h, SK-BR-3, 3 days, read-out: IC50

| Compound | logD hydrocarbon water ([1]; LogP) | IC50 [2, 7] [nM] | IC50 [3, 8] [nM] | IC50 [4, 9] [nM] | IC50 [5, 10] [nM] | IC50 [6, 11] [nM] | also measured |
| --- | --- | --- | --- | --- | --- | --- | --- |
| CC[C@@]1(O)C(=O)OCc2c1cc1n(c2=O)Cc2c-1nc1cc(F)c(C)c3c1c2[C@@H](NC(=O)[C@@H](O)C(F)(F)F)CC3 [Compound 14, reference compound] | 2.6 |  |  |  |  |  |  |
| CC[C@@]1(O)C(=O)OCc2c1cc1n(c2=O)Cc2c-1nc1cc(F)c(C)c3c1c2[C@@H](NC(=O)CO)CC3 [Dxd, reference compound] |  |  |  |  |  |  | IC50 ([2]; MDA-MB-468, 3 days, read-out: IC50): 10.7 nM; IC50 ([3]; SW620, 3 days, read-out: IC50): 1.95 nM; IC50 ([4]; BxPc-3, 3 days, read-out: IC50): 3.97 nM; IC50 ([5]; A431, 3 days, read-out: IC50): 4.99 nM; IC50 ([6]; SK-BR-3, 3 days, read-out: IC50): 19.7 nM |
| CC[C@@]1(O)C(=O)OCc2c1cc1n(c2=O)Cc2c-1nc1cc(F)c(C)c3c1c2[C@@H](NC(=O)[C@H](O)C(F)(F)F)CC3 [Compound 13, reference compound] |  |  |  |  |  |  | LogP [1]: 2.6 |
| CC[C@@]1(O)C(=O)OCc2c1cc1n(c2=O)Cc2c-1nc1cc(F)c(C)c3c1c2[C@H](NC(=O)CO)CC3 [Compound 2] |  |  |  |  |  |  | logD hydrocarbon water ([1]; n-octane (oil) / water, read-out: LogP): 1.8; IC50 ([2]; Homo sapiens, MDA-MB-468, 72 h): 0.002 nM; IC50 ([3]; Homo sapiens, SW-620, 72 h): 2.89 nM; IC50 ([4]; Homo sapiens, BXPC-3, 72 h): 4 nM; IC50 ([5]; Homo sapiens, A-431, 72 h): 4.5 nM; IC50 ([6]; Homo sapiens, SK-BR-3, 72 h): 1.78 nM |
| CC[C@@]1(O)C(=O)OCc2c1cc1n(c2=O)Cc2c-1nc1cc(F)c(C)c3c1c2[C@H](NC(=O)[C@H](C)O)CC3 [Compound 3] | 1.6 | 0.22 | 1.29 | 3.66 | 4.19 | 15 |  |
| CC[C@@]1(O)C(=O)OCc2c1cc1n(c2=O)Cc2c-1nc1cc(F)c(C)c3c1c2[C@H](NC(=O)[C@@H](O)C(F)(F)F)CC3 [Compound 6] | 1.9 |  | 0.093 | 0.416 | 0.689 | 9.1 |  |
| CC[C@@]1(O)C(=O)OCc2c1cc1n(c2=O)Cc2c-1nc1cc(F)c(C)c3c1c2[C@@H](NC(=O)[C@H](O)C1CC1)CC3 [Compound 16, reference compound] | 2.6 |  |  |  |  |  |  |
| CC[C@@]1(O)C(=O)OCc2c1cc1n(c2=O)Cc2c-1nc1cc(F)c(C)c3c1c2[C@@H](NC(=O)[C@H](C)O)CC3 [Compound 11, reference compound] | 2.5 |  |  |  |  |  |  |
| CC[C@@]1(O)C(=O)OCc2c1cc1n(c2=O)Cc2c-1nc1cc(F)c(C)c3c1c2[C@H](NC(=O)[C@@H](O)C1CC1)CC3 [Compound 7] | 1.7 | < 0.001 | 0.894 | 0.801 | 0.961 | < 0.01 |  |
| CC[C@@]1(O)C(=O)OCc2c1cc1n(c2=O)Cc2c-1nc1cc(F)c(C)c3c1c2[C@@H](NC(=O)[C@@H](C)O)CC3 [Compound 12, reference compound] | 2.5 |  |  |  |  |  |  |
| CC[C@@]1(O)C(=O)OCc2c1cc1n(c2=O)Cc2c-1nc1cc(F)c(C)c3c1c2[C@H](NC(=O)[C@@H](C)O)CC3 [Compound 4] | 1.9 |  | 0.92 | 2.85 | 3.1 |  |  |
| CC[C@@]1(O)C(=O)OCc2c1cc1n(c2=O)Cc2c-1nc1cc(F)c(C)c3c1c2[C@H](NC(=O)C1(CO)CCC1)CC3 [Compound 9] | 1.6 | 0.525 | 1.11 | 1.07 | 1.52 | 7.32 |  |
| CC[C@@]1(O)C(=O)OCc2c1cc1n(c2=O)Cc2c-1nc1cc(F)c(C)c3c1c2[C@@H](NC(=O)[C@@H](O)C1CC1)CC3 [Compound 15, reference compound] | 2.7 |  |  |  |  |  |  |
| CC[C@@]1(O)C(=O)OCc2c1cc1n(c2=O)Cc2c-1nc1cc(F)c(C)c3c1c2[C@@H](NC(=O)[C@H](O)C(F)(F)F)CC3 [Compound 5] | 1.9 | 8.91 | 0.866 | 1.73 | 2.83 | 8.49 |  |
| CC[C@@]1(O)C(=O)OCc2c1cc1n(c2=O)Cc2c-1nc1cc(F)c(C)c3c1c2[C@H](NC(=O)[C@H](O)C1CC1)CC3 [Compound 8] | 1.8 | < 0.001 | 1.18 | 1.1 | 1.84 | < 0.01 |  |
